Source: patent US6830894B1, “Compounds and methods for modulating claudin-mediated functions” (Adherex Technologies, Inc., priority 1998, dated 2004)

System: MDCK cell monolayers
Assay: Electrical resistance across MDCK cell monolayer
Assay type: cell-based, canine
Method: Yet another assay evaluates the effect of a modulating agent on the electrical resistance across a monolayer of cells. For example, Madin Darby canine kidney (MDCK) cells can be exposed to the modulating agent dissolved in medium (e.g., at a final concentration of 0.5 mg/ml for a period of 24 hours). The effect on electrical resistance can be measured using standard techniques. This assay evaluates the effect of a modulating agent on tight junction formation in epithelial cells. In general, the presence of 500 μg/mL modulating agent should result in a statistically significant decrease in electrical resistance after 24 hours.
Madin Darby canine kidney (MDCK) cells were plated in Millicells (Millipore, Bedford, Mass.), at a density of 300,000 cells per Millicell, and cultured in Dulbecco's Modified Eagle Medium (DMEM; Sigma, St. Louis, Mo.) containing 5% fetal calf serum (Sigma, St. Louis, Mo.) until monolayers formed. Monolayers were exposed to the modulating agent dissolved in medium. The electrical resistance was measured using the EVOM device (World Precision Instruments, Sarasota, Fla.). At the time of measurement, fresh medium, with or without the modulating agent, may be added to the Millicells.

[1] = cultured for 18 hours, peptide at 0.5 mg/ml, relative to medium alone (Control), FIG. 3

Substance	mean electrical resistance across MDCK cell monolayers [1]	mean electrical resistance across MDCK cell monolayers (cultured for 24 hours, peptide at various concentrations, versus medium alone (Control), FIG. 4)
H-WKIYSYAGDN-NH2 [Peptide 119]	did not change the electrical resistance across the monolayer relative to the control	–
N—Ac-WKIYSYAGDN-NH2 [Peptide 118]	reduced the electrical resistance across the monolayer	reduced the electrical resistance across the monolayer in a dose dependent manner
